From US20210382058A1, “PATIENT SELECTION FOR TREATMENT OF MYC POSITIVE CANCERS WITH INDENOISOQUINOLINES” (Purdue Research Foundation, priority 2020, published 2021)
Where two headings read alike, the source gives them in different places.

Assays:
[1] = test system: MYC protein expression in MCF-7 breast cancer cells; experiment: Western blotting of MYC protein level in MCF-7 cells; assay type: cell-based, human; details: for MYC-inhibitory effect (MYC protein, western blot): MCF-7, 0.5, 1, 2, and 4 μM, 24 h
Experimental: MCF-7 cells were incubated with each compound at four concentrations (0.5, 1, 2, and 4 μM) for 24 hours, and the MYC protein levels were measured (FIG. 3A and FIGS. 12 A to 12 F).
Cells were incubated at 37° C. with 5% CO2.
The gels were cut into strips that contained the proteins of interest and transferred to nitrocellulose membrane (I323002, Invitrogen) using an iBlot 2 Dry Transfer Device (Invitrogen). Immunoblotting was carried out according to standard procedures using the ECL detection method. The membrane was hybridized with the following antibodies: monoclonal anti-MYC (1:1000 dilution; rabbit, Cell Signaling Technology), monoclonal anti-GAPDH (1:2000 dilution; rabbit, Cell Signaling Technology).

NCI-60 cancer cell lines = experiment: NCI-60 cancer cell line drug screen (GI50, MGM); assay type: cell-based, human; details: for GI50 / mean GI50 across NCI-60 panel (MGM): Homo sapiens; for GI50: read-out: Antiproliferative Activities [GI50 (μM)]; for mean GI50 across NCI-60 panel (MGM): average of GI50 values across the entire panel of NCI-60 cancer cell lines
Experimental: Cancer cells were incubated with the test compounds at five concentrations ranging from 100 μM to 10 nM for 48 h. […] The approximate average of GI50 values across the entire panel of NCI-60 cancer cell lines for each compound was recorded as the MGM value.

[2] = A549, Non-Small Cell Lung Cancer, A549/ATCC
[3] = COLO 205, Colon Cancer, COLO 205
[4] = DU-145, Prostate Cancer, DU-145
[5] = EKVX, Non-Small Cell Lung Cancer, EKVX
[6] = HCC 2998, Colon Cancer, HCC-2998
[7] = HOP-62, Non-Small Cell Lung Cancer, HOP-62
[8] = HOP-92, Non-Small Cell Lung Cancer, HOP-92
[9] = Hs-578T, Breast Cancer, HS 578T
[10] = MDA-MB-231, Breast Cancer, MDA-MB-231/ATCC
[11] = MDA-MB-435, Melanoma, MDA-MB-435
[12] = NCI-H23, Non-Small Cell Lung Cancer, NCI-H23
[13] = NCI-H226, Non-Small Cell Lung Cancer, NCI-H226
[14] = NCI-H322M, Non-Small Cell Lung Cancer, NCI-H322M
[15] = NCI-H460, Non-Small Cell Lung Cancer, NCI-H460
[16] = NCI-H522, Non-Small Cell Lung Cancer, NCI-H522
[17] = OVCAR-3, Ovarian Cancer, OVCAR-3
[18] = OVCAR-4, Ovarian Cancer, OVCAR-4
[19] = OVCAR-5, Ovarian Cancer, OVCAR-5
[20] = OVCAR-8, Ovarian Cancer, OVCAR-8
[21] = SK-OV-3, Ovarian Cancer, SK-OV-3

COc1cnc2c(c1)C(=O)c1c-2n(CCCNC2=NCCS2)c(=O)c2cc([N+](=O)[O-])ccc12 [Compound 12]
MYC-inhibitory effect (MYC protein, western blot) [1]: clear MYC-inhibitory effect
GI50 (NCI-60 cancer cell lines; 786-0, Renal Cancer, 786-0): 0.02 µM
GI50 (NCI-60 cancer cell lines; [2]): 0.04 µM
GI50 (NCI-60 cancer cell lines; ACHN, Renal Cancer, ACHN): < 0.01 µM
GI50 (NCI-60 cancer cell lines; BT-549, Breast Cancer, BT-549): 0.05 µM
GI50 (NCI-60 cancer cell lines; CAKI-1, Renal Cancer, CAKI-1): < 0.01 µM
GI50 (NCI-60 cancer cell lines; CCRF-CEM, Leukemia, CCRF-CEM): < 0.01 µM
GI50 (NCI-60 cancer cell lines; [3]): 0.24 µM
GI50 (NCI-60 cancer cell lines; [4]): < 0.01 µM
GI50 (NCI-60 cancer cell lines; [5]): 1.01 µM
GI50 (NCI-60 cancer cell lines; [6]): 1.03 µM
GI50 (NCI-60 cancer cell lines; HCT-15, Colon Cancer, HCT-15): 1.17 µM
GI50 (NCI-60 cancer cell lines; HL-60, Leukemia, HL-60(TB)): < 0.01 µM
GI50 (NCI-60 cancer cell lines; [7]): 0.01 µM
GI50 (NCI-60 cancer cell lines; [8]): 1.38 µM
GI50 (NCI-60 cancer cell lines; HT-29, Colon Cancer, HT29): 0.03 µM
GI50 (NCI-60 cancer cell lines; [9]): 1.82 µM
GI50 (NCI-60 cancer cell lines; IGROV-1, Ovarian Cancer, IGROV1): 0.08 µM
GI50 (NCI-60 cancer cell lines; K562, Leukemia, K-562): 0.11 µM
GI50 (NCI-60 cancer cell lines; KM12, Colon Cancer, KM12): 1.11 µM
GI50 (NCI-60 cancer cell lines; LOX IMVI, Melanoma, LOX IMVI): < 0.01 µM
GI50 (NCI-60 cancer cell lines; Leukemia, SR): < 0.01 µM
GI50 (NCI-60 cancer cell lines; MCF7, Breast Cancer, MCF7): < 0.01 µM
GI50 (NCI-60 cancer cell lines; [10]): 1.61 µM
GI50 (NCI-60 cancer cell lines; [11]): 0.48 µM
GI50 (NCI-60 cancer cell lines; MDA-MB-468, Breast Cancer, MDA-MB-468): 0.03 µM
GI50 (NCI-60 cancer cell lines; MOLT-4, Leukemia, MOLT-4): < 0.01 µM
GI50 (NCI-60 cancer cell lines; Malme-3M, Melanoma, MALME-3M): 0.62 µM
GI50 (NCI-60 cancer cell lines; Melanoma, M14): < 0.01 µM
GI50 (NCI-60 cancer cell lines; [12]): 0.02 µM
GI50 (NCI-60 cancer cell lines; [13]): 0.04 µM
GI50 (NCI-60 cancer cell lines; [14]): 0.04 µM
GI50 (NCI-60 cancer cell lines; [15]): < 0.01 µM
GI50 (NCI-60 cancer cell lines; [16]): < 0.01 µM
GI50 (NCI-60 cancer cell lines; [17]): 0.14 µM
GI50 (NCI-60 cancer cell lines; [18]): 0.48 µM
GI50 (NCI-60 cancer cell lines; [19]): 1.04 µM
GI50 (NCI-60 cancer cell lines; [20]): 0.02 µM
GI50 (NCI-60 cancer cell lines; Ovarian Cancer, NCl/ADR-RES): 0.02 µM
GI50 (NCI-60 cancer cell lines; Prostate Cancer, PC-3): 1.28 µM
GI50 (NCI-60 cancer cell lines; RPMI-8226, Leukemia, RPMI-8226): 0.03 µM
GI50 (NCI-60 cancer cell lines; RXF 393, Renal Cancer, RXF 393): 0.03 µM
GI50 (NCI-60 cancer cell lines; Renal Cancer, U0-31): < 0.01 µM
GI50 (NCI-60 cancer cell lines; SF-268, CNS Cancer, SF-268): < 0.01 µM
GI50 (NCI-60 cancer cell lines; SF-295, CNS Cancer, SF-295): 0.01 µM
GI50 (NCI-60 cancer cell lines; SF-539, CNS Cancer, SF-539): 0.04 µM
GI50 (NCI-60 cancer cell lines; SK-MEL-2, Melanoma, SK-MEL-2): 1.56 µM
GI50 (NCI-60 cancer cell lines; SK-MEL-5, Melanoma, SK-MEL-5): 0.03 µM
GI50 (NCI-60 cancer cell lines; SK-MEL-28, Melanoma, SK-MEL-28): 1.18 µM
GI50 (NCI-60 cancer cell lines; [21]): 0.01 µM
GI50 (NCI-60 cancer cell lines; SN12C, Renal Cancer, SN12C): < 0.01 µM
GI50 (NCI-60 cancer cell lines; SNB-19, CNS Cancer, SNB-19): 0.01 µM
GI50 (NCI-60 cancer cell lines; SNB-75, CNS Cancer, SNB-75): 0.03 µM
GI50 (NCI-60 cancer cell lines; SW-620, Colon Cancer, SW-620): 0.01 µM
GI50 (NCI-60 cancer cell lines; T47D, Breast Cancer, T-47D): < 0.01 µM
GI50 (NCI-60 cancer cell lines; TK-10, Renal Cancer, TK-10): 1.34 µM
GI50 (NCI-60 cancer cell lines; U-251, CNS Cancer, U251): < 0.01 µM
GI50 (NCI-60 cancer cell lines; UACC-62, Melanoma, UACC-62): < 0.01 µM
GI50 (NCI-60 cancer cell lines; UACC-257, Melanoma, UACC-257): 0.58 µM
mean GI50 across NCI-60 panel (MGM) (NCI-60 cancer cell lines): 55 nM
anticancer activity (GI50 profile) in words (NCI-60 cancer cell lines; NCI-60 panel): more potent anticancer activities compared to compounds 4 and 20

O=C1c2ccccc2-c2c1c1ccccc1c(=O)n2CCCNCCO [Compound 13]
minimal effective concentration ([1]; Homo sapiens, MCF7, western blotting, MCF-7 cells, 0.5, 1, 2, and 4 μM, 24 hours, read-out: MYC Inhibition): 0.5 to 1 µM
MYC-inhibitory effect (MYC protein, western blot) [1]: clear MYC-inhibitory effect
GI50 (NCI-60 cancer cell lines; 786-0, Renal Cancer, 786-0): 0.06 µM
GI50 (NCI-60 cancer cell lines; A498, Renal Cancer, A498): 0.13 µM
GI50 (NCI-60 cancer cell lines; [2]): 0.06 µM
GI50 (NCI-60 cancer cell lines; ACHN, Renal Cancer, ACHN): 0.04 µM
GI50 (NCI-60 cancer cell lines; BT-549, Breast Cancer, BT-549): 0.28 µM
GI50 (NCI-60 cancer cell lines; CAKI-1, Renal Cancer, CAKI-1): 0.24 µM
GI50 (NCI-60 cancer cell lines; CCRF-CEM, Leukemia, CCRF-CEM): 0.01 µM
GI50 (NCI-60 cancer cell lines; [3]): 0.07 µM
GI50 (NCI-60 cancer cell lines; [4]): 0.06 µM
GI50 (NCI-60 cancer cell lines; [5]): 0.43 µM
GI50 (NCI-60 cancer cell lines; [6]): 0.19 µM
GI50 (NCI-60 cancer cell lines; HCT-15, Colon Cancer, HCT-15): 0.15 µM
GI50 (NCI-60 cancer cell lines; HCT-116, Colon Cancer, HCT-116): 0.04 µM
GI50 (NCI-60 cancer cell lines; HL-60, Leukemia, HL-60(TB)): 0.21 µM
GI50 (NCI-60 cancer cell lines; [7]): 0.03 µM
GI50 (NCI-60 cancer cell lines; [8]): 0.15 µM
GI50 (NCI-60 cancer cell lines; HT-29, Colon Cancer, HT29): 0.12 µM
GI50 (NCI-60 cancer cell lines; [9]): 0.66 µM
GI50 (NCI-60 cancer cell lines; K562, Leukemia, K-562): 0.18 µM
GI50 (NCI-60 cancer cell lines; KM12, Colon Cancer, KM12): 0.19 µM
GI50 (NCI-60 cancer cell lines; LOX IMVI, Melanoma, LOX IMVI): 0.05 µM
GI50 (NCI-60 cancer cell lines; Leukemia, SR): < 0.01 µM
GI50 (NCI-60 cancer cell lines; MCF7, Breast Cancer, MCF7): < 0.01 µM
GI50 (NCI-60 cancer cell lines; [10]): 0.68 µM
GI50 (NCI-60 cancer cell lines; [11]): 0.39 µM
GI50 (NCI-60 cancer cell lines; MOLT-4, Leukemia, MOLT-4): < 0.01 µM
GI50 (NCI-60 cancer cell lines; Malme-3M, Melanoma, MALME-3M): 0.21 µM
GI50 (NCI-60 cancer cell lines; Melanoma, M14): 0.32 µM
GI50 (NCI-60 cancer cell lines; [12]): 0.21 µM
GI50 (NCI-60 cancer cell lines; [13]): 1.42 µM
GI50 (NCI-60 cancer cell lines; [14]): 0.34 µM
GI50 (NCI-60 cancer cell lines; [15]): < 0.01 µM
GI50 (NCI-60 cancer cell lines; [16]): 0.02 µM
GI50 (NCI-60 cancer cell lines; [17]): 0.41 µM
GI50 (NCI-60 cancer cell lines; [18]): 0.23 µM
GI50 (NCI-60 cancer cell lines; [19]): 0.38 µM
GI50 (NCI-60 cancer cell lines; [20]): 0.07 µM
GI50 (NCI-60 cancer cell lines; Ovarian Cancer, NCl/ADR-RES): 1.04 µM
GI50 (NCI-60 cancer cell lines; Prostate Cancer, PC-3): 0.28 µM
GI50 (NCI-60 cancer cell lines; RPMI-8226, Leukemia, RPMI-8226): 0.1 µM
GI50 (NCI-60 cancer cell lines; RXF 393, Renal Cancer, RXF 393): 0.96 µM
GI50 (NCI-60 cancer cell lines; Renal Cancer, U0-31): 0.1 µM
GI50 (NCI-60 cancer cell lines; SF-268, CNS Cancer, SF-268): 0.07 µM
GI50 (NCI-60 cancer cell lines; SF-295, CNS Cancer, SF-295): 0.08 µM
GI50 (NCI-60 cancer cell lines; SF-539, CNS Cancer, SF-539): 0.11 µM
GI50 (NCI-60 cancer cell lines; SK-MEL-2, Melanoma, SK-MEL-2): 0.55 µM
GI50 (NCI-60 cancer cell lines; SK-MEL-5, Melanoma, SK-MEL-5): 0.07 µM
GI50 (NCI-60 cancer cell lines; SK-MEL-28, Melanoma, SK-MEL-28): 1.11 µM
GI50 (NCI-60 cancer cell lines; [21]): 0.22 µM
GI50 (NCI-60 cancer cell lines; SN12C, Renal Cancer, SN12C): 0.16 µM
GI50 (NCI-60 cancer cell lines; SNB-19, CNS Cancer, SNB-19): 0.11 µM
GI50 (NCI-60 cancer cell lines; SNB-75, CNS Cancer, SNB-75): 0.23 µM
GI50 (NCI-60 cancer cell lines; SW-620, Colon Cancer, SW-620): 0.04 µM
GI50 (NCI-60 cancer cell lines; T47D, Breast Cancer, T-47D): 0.05 µM
GI50 (NCI-60 cancer cell lines; TK-10, Renal Cancer, TK-10): 0.41 µM
GI50 (NCI-60 cancer cell lines; U-251, CNS Cancer, U251): 0.1 µM
GI50 (NCI-60 cancer cell lines; UACC-62, Melanoma, UACC-62): 0.55 µM
GI50 (NCI-60 cancer cell lines; UACC-257, Melanoma, UACC-257): 1.18 µM
mean GI50 across NCI-60 panel (MGM) (NCI-60 cancer cell lines): 140 nM
